Counter-ions that a name gives are not always drawn. Like-named read-outs stand apart in the source and are kept apart here.
What was measured:
[1] = system: P. falciparum strain D6; experiment: [3H]-hypoxanthine growth inhibition assay, P. falciparum D6; assay type: cell-based; details: Plasmodium falciparum
Method: (§1) The potential for antimalarial activity against Plasmodium falciparum was determined by measuring the incorporation of tritiated hypoxanthine into parasitized red blood cells.
(§2) Stock solutions of the test compounds and the reference drug chloroquine (CQ) (Sigma Chemicals C-6628, Lot #059H0919) were prepared in silanized glass vials with AquaSil™ (Pierce, USA) to minimize absorption of the compounds to glassware. All test compounds were dissolved in DMSO (Sigma Cat No. #D8418) to 1 mM concentration, whereas CQ was dissolved in 50% methanol at a concentration of 1.6 mg/ml (base). Stock solutions were stored at −20° C.
(§3) The P. falciparum laboratory adapted strains utilized in this project (Table 1) were in vitro cultured and routinely maintained in RPMI-1640-LPLF complete medium, which contained low concentrations of para-amino benzoic acid (0.0005 mg/L) and folic acid (0.01 mg/L).
(§4) The low concentration of folic acid in RPMI-1640-LPLF prevents inhibition of the compound if its activity targets the parasite's folate metabolic pathway. Parasites were cultured in human red blood cells (RBCs) in vitro at 37° C. in special gas mixture (5% O2, 5% CO2 and 90% N2) as described Trager and Jensen (1979 Science 193:673-675).
(§5) Base cultivation medium consisted of 10.4 g/L RPMI-1640-LPLF powder (Gibco BRL), 5.97 g/L HEPES buffer (MP Biomedicals, USA), 2.0 g/L D-glucose (BDH chemicals, Australia), 0.05 g/L hypoxanthine (Sigma, USA) and 40 mg/L gentamycin (Pfizer, Australia). The pH of the medium was adjusted to 6.9 and the solution was filtered using 0.2 μm pore size (AcroCap, Gelman Science, USA). Complete medium was prepared by adding sodium bicarbonate solution (final concentration, 0.21%) and drug-free heat-inactivated human plasma, pooled from various blood types, obtained from the Australian Red Cross Blood Service (Brisbane) (final concentration, 10%) to the base RPMI-1640-LPLF. For [^3H]-hypoxanthine inhibition growth assay, RPMI-1640-LPLF complete medium which lacked [^3H]-hypoxanthine ([^3H]-RPMI-1640-LPLF) was used to prevent uptake of hypoxanthine by parasites, as radioactive hypoxanthine uptake is measured as a surrogate marker of growth. All complete medium was used within three days of preparation. See DE (Para) SOP 002 for methodology.
(§6) Red blood cells (RBC) were required for P. falciparum parasites to proliferate in vitro. 0 (Rh+) type blood was obtained from the Australian Red Cross Blood Service. The RBC were washed twice in phosphate-buffered saline (PBS) and once in [^3H]-RPMI-1640-LPLF complete medium by centrifugation at 1,500×g for 5 min. Following the final wash, the haematocrit was measured as the percent of RBC to total culture volume. The haematocrit was adjusted to 50% by removing or adding [^3H]-RPMI-LPLF complete medium. See DE (Para) SOP 003 for methodology.
(§7) All P. falciparum strains were grown in RPMI-1640-LPLF complete medium at 4% haematocrit and 1% to 8% parasitaemia at 37° C. in sealed flasks in a gas mixture of 5% O2, 5% CO2 and 90% N2 (BOC Gases, Brisbane, Australia). For drug susceptibility assays cultures were routinely synchronized when the majority of parasites (>85%) were at early trophozoite (ring) stage. Synchronization involved removing the more mature erythrocytic parasite stages by lysis, resulting in the retention only of early trophozoite (ring) stages. Synchronization was performed by re-suspending the infected red blood cell (iRBC) pellet in 5 to 10 times its volume of 5% D-sorbitol (Bacto Laboratories Pty. Ltd., Australia) for 5 min (Lambros and Vanderberg, 1979 J Parasitol 65: 418-420). The mixture was centrifuged (1,500 rpm for 5 min) and the supernatant removed. The iRBC were washed twice using PBS buffer and once using [^3H]-RPMI-LPLF plain medium. Following synchronization, a new culture was prepared with an initial parasitaemia of 1% in RPMI-LPLF complete medium. See DE (Para) SOP 008 for methodology.

[2] = system: P. falciparum strain W2; experiment: [3H]-hypoxanthine growth inhibition assay, P. falciparum W2; assay type: cell-based; details: Plasmodium falciparum
Method: as §1, §2, §3, §4, §5, §6, §7

[3] = P. falciparum D6 (sensitive to chloroquine and pyrimethamine), [3H]-hypoxanthine incorporation, read-out: D6 IC50
[4] = P. falciparum W2 (resistant to chloroquine and pyrimethamine), [3H]-hypoxanthine incorporation, read-out: W2 IC50

Row | SMILES | IC50 ([1]; D6, read-out: D6 IC50) [nM] | IC50 ([2]; W2, read-out: W2 IC50) [nM] | IC50 [1, 3] [nM] | IC50 [2, 4] [nM]
1 | CCN(CC)CCCC(C)NCc1cc(C(C)(C)C)cc(-c2ccc(C(F)(F)F)nc2)c1O (centres unmarked) [Example 59, 4-(tert-Butyl)-2-(((5-(diethylamino)pentan-2-yl)amino)methyl)-6-(6-(trifluoromethyl)pyridin-3-yl)phenol dihydrochloride] | 87 | 97 | – | –
2 | CC(C)(C)NCc1cc(C(C)(C)C)cc(-c2nccc(C(F)(F)F)n2)c1O [Example 46, 4-(tert-Butyl)-2-((tert-butylamino)methyl)-6-(4-(trifluoromethyl)pyrimidin-2-yl)phenol hydrochloride] | – | – | 2100 | 1970
3 | CC(C)(C)NCc1cc(C(C)(C)C)cc(-c2cc3ccccc3o2)c1O [Example 6, 2-(Benzofuran-2-yl)-4-(tert-butyl)-6-((tert-butylamino)methyl)phenol hydrochloride] | – | – | 31 | 13
4 | CC(C)(C)NCc1cc(C(C)(C)C)cc(-c2cnc(C(F)(F)F)cn2)c1O [Example 32, 4-(tert-Butyl)-2-((tert-butylamino)methyl)-6-(5-(trifluoromethyl)pyrazin-2-yl)phenol hydrochloride] | – | – | 38 | 11
5 | CC(C)(C)NCCCNCc1cc(C(C)(C)C)cc(-c2ccc(C(F)(F)F)nc2)c1O [Example 60, 4-(tert-Butyl)-2-(((3-(tert-butylamino)propyl)amino)methyl)-6-(6-(trifluoromethyl)pyridin-3-yl)phenol dihydrochloride] | 134 | 175 | – | –
6 | CC(C)(C)NCc1cc(C(C)(C)C)cc(-c2ccc(Cl)nc2)c1O [Example 23, 4-(tert-Butyl)-2-((tert-butylamino)methyl)-6-(6-chloropyridin-3-yl)phenol hydrochloride] | – | – | 19 | 12
7 | COc1cc(-c2cc(C(C)(C)C)cc(CNC(C)(C)C)c2O)ccn1 [Example 16, 4-(tert-Butyl)-2-((tert-butylamino)methyl)-6-(2-methoxypyridin-4-yl)phenol dihydrochloride] | 26 | 11 | – | –
8 | CC(C)(C)NCc1cc(C(C)(C)C)cc(-c2cnccc2C(F)(F)F)c1O [Example 36, 4-(tert-Butyl)-2-((tert-butylamino)methyl)-6-(4-(trifluoromethyl)pyridin-3-yl)phenol 1.9hydrochloride] | – | – | 779 | 401
9 | CC(C)(C)NCc1cc(-c2cccnc2)cc(-c2cccnc2)c1O [Example 37, 2-((tert-Butylamino)methyl)-4,6-di(pyridin-3-yl)phenol] | – | – | 5000 | 5000
10 | CC(C)(C)NCc1cc(C(C)(C)C)cc(-c2cccc(C(F)(F)F)n2)c1O [Example 29, 4-(tert-Butyl)-2-((tert-butylamino)methyl)-6-(6-(trifluoromethyl)pyridin-2-yl)phenol hydrochloride] | – | – | 192 | 68
11 | CC(C)(C)NCc1cc(C(C)(C)C)cc(-c2ccnc(C(F)(F)F)c2)c1O [Example 20, 4-(tert-Butyl)-2-((tert-butylamino)methyl)-6-(2-(trifluoromethyl)pyridin-4-yl)phenol hydrochloride] | – | – | 21 | 9
12 | CC(C)Oc1ccc(-c2cc(C(C)(C)C)cc(CNC(C)(C)C)c2O)cn1 [Example 10, 4-(tert-Butyl)-2-((tert-butylamino)methyl)-6-(6-isopropoxypyridin-3-yl)phenol dihydrochloride] | 25 | 11 | – | –
13 | CC(C)(C)NCc1cc(-c2ccc(C(F)(F)F)nc2)cc(-c2ccc(C(F)(F)F)nc2)c1O [Example 38, 2-((tert-Butylamino)methyl)-4,6-bis(6-(trifluoromethyl)pyridin-3-yl)phenol] | – | – | 7000 | 5000
14 | CC(C)(C)c1cc(CN2CCCCC2)c(O)c(-c2ccc(C(F)(F)F)nc2)c1 [Example 51, 4-(tert-Butyl)-2-(piperidin-1-ylmethyl)-6-(6-(trifluoromethyl)pyridin-3-yl)phenol hydrochloride] | – | – | 46 | 24
15 | CC(C)(C)NCc1cc(-c2ccc(Cl)c(C(F)(F)F)c2)cc(-c2ccc(C(F)(F)F)nc2)c1O [Example 39, 3-((tert-Butylamino)methyl)-4′-chloro-3′-(trifluoromethyl)-5-(6-(trifluoromethyl)pyridin-3-yl)-[1,1′-biphenyl]-4-ol hydrochloride] | – | – | 73 | 42
16 | CN1CCN(Cc2cc(C(C)(C)C)cc(-c3ccc(C(F)(F)F)nc3)c2O)CC1 [Example 50, 4-(tert-Butyl)-2-((4-methylpiperazin-1-yl)methyl)-6-(6-(trifluoromethyl)pyridin-3-yl)phenol dihydrochloride] | 297 | 160 | – | –
17 | CCN(CC)Cc1cc(C(C)(C)C)cc(-c2ccc(C(F)(F)F)nc2)c1O [Example 47, 4-(tert-Butyl)-2-((diethylamino)methyl)-6-(6-(trifluoromethyl)pyridin-3-yl)phenol hydrochloride] | – | – | 43 | 31
18 | CC(C)(C)NCc1cc(F)cc(-c2ccc(C(F)(F)F)nc2)c1O [Example 68, 2-((tert-Butylamino)methyl)-4-fluoro-6-(6-(trifluoromethyl)pyridin-3-yl)phenol hydrochloride] | – | – | 221 | 126
19 | CC(=O)N1CCN(Cc2cc(C(C)(C)C)cc(-c3ccc(C(F)(F)F)nc3)c2O)CC1 [Example 53, 1-(4-(5-(tert-Butyl)-2-hydroxy-3-(6-(trifluoromethyl)pyridin-3-yl)benzyl)piperazin-1-yl)ethanone hydrochloride] | – | – | 3660 | 2290
20 | CC(C)(C)NCc1cc(C(C)(C)C)cc(-c2ncc(C(F)(F)F)cn2)c1O [Example 54, 4-(tert-Butyl)-2-((tert-butylamino)methyl)-6-(5-(trifluoromethyl)pyrimidin-2-yl)phenol hydrochloride] | – | – | 6320 | 6120
21 | CC(C)(C)NCc1cc(S(C)(=O)=O)cc(-c2ccc(C(F)(F)F)nc2)c1O [Example 72, 2-((tert-Butylamino)methyl)-4-(methylsulfonyl)-6-(6-(trifluoromethyl)pyridin-3-yl)phenol hydrochloride] | – | – | 125000 | 81600
22 | CC(C)(C)NCc1cc(C(C)(C)C)cc(-c2cnc3ccccc3c2)c1O [Example 3, 4-(tert-Butyl)-2-((tert-butylamino)methyl)-6-(quinolin-3-yl)phenol dihydrochloride] | 26 | 22 | – | –
23 | CC(C)NCc1cc(C(C)(C)C)cc(-c2ccc(C(F)(F)F)nc2)c1O [Example 48, 4-(tert-Butyl)-2-((isopropylamino)methyl)-6-(6-(trifluoromethyl)pyridin-3-yl)phenol hydrochloride] | – | – | 5 | 5
24 | CC(C)(C)NCc1cc(C(C)(C)C)cc(-c2ccc(C(C)(C)C)nc2)c1O [Example 22, 4-(tert-Butyl)-2-(6-(tert-butyl)pyridin-3-yl)-6-((tert-butylamino)methyl)phenol dihydrochloride] | 64 | 24 | – | –
25 | CC(C)(C)NCc1cc(C(C)(C)C)cc(-c2cncc(C(F)(F)F)c2)c1O [Example 18, 4-(tert-Butyl)-2-((tert-butylamino)methyl)-6-(5-(trifluoromethyl)pyridin-3-yl)phenol 1.4 hydrochloride] | – | – | 25 | 12

Reference: patent US9409893B2, “Heteroaryl derivatives and uses thereof” (Jacobus Pharmaceutical Company, Inc., priority 2012, dated 2016)
